According to patent US7501529B2, “7-Ethynyl-2,4,9-trithiaadamantane and related methods” (The University of Akron, priority 2003, dated 2009):

Assays:
[1] = comparison value, source not stated; cited from earlier work
[2] = 1H NMR titration, stability constant of the inclusion complex (Benesi-Hildebrand); type: physicochemical
Procedure: The equilibrium constant of the formation of the inclusion complex provides a relative measurement of the thermodynamic driving force for the guest and host binding. NMR Titration was performed by measuring chemical shift changes as a function of the relative concentrations of the host and guest. The changes of the chemical shifts were measured for the H-3 and H-5 peaks of the host and Ha and Hb of the guest in the following scheme, which represents the inclusion complex formation of 7-hydroxycarbonyl-2,4,9-trithiaadamantane with β-cyclodextrin:
The data in Table 1 were also used to calculate the stability constant of the 7-hydroxycarbonyl-2,4,9-trithiaadamantane/β-cyclodextrin inclusion complex by applying the Benesi-Hildebrand equation having the formula: 1/Δδi=(1/KΔδc)(1/Hi)+1/Δδc where the Δδi represents the observed chemical shift difference between the free guest and complexed guest, Hi represents the total host concentration, and Δδc represents the guest chemical shift difference between a completely complexed state and completely free state. In order to use Benesi-Hildebrand equation, the host molecule must be present in excess. The stability constant was determined from simultaneous fits of three chemical shift data sets. The stability constant of 7-hydroxycarbonyl-2,4,9-trithiaadamantane/β-cyclodextrin in water was thus measured to be 1550 M^−1 (logK=3.19). […]

[3] = Solubility in water / D2O, observed during 1H NMR experiments; type: physicochemical
Source text: The formation of inclusion complex between 7-hydroxycarbonyl-2,4,9-trithiaadamantane and β-cyclodextrin was evident in the 1H NMR experiments. […] Thus, a 1:1 mixture of 7-hydroxycarbonyl-2,4,9-trithiaadamantane and β-cyclodextrin (3.5×10^−3 M) formed a clear solution in D2O in an NMR sampling tube. At the low concentration limit, this change in the solubility of 7-hydroxycarbonyl-2,4,9-trithiaadamantane in water is attributed to the molecular interactions between water insoluble 7-hydroxycarbonyl-2,4,9-trithiaadamantane and water soluble β-cyclodextrin. […] Similar phenomena in cyclodextrin inclusion complexes have been observed previously. Without being bound by theory, these spectral changes were attributed at least in part to the dynamic exchanges between uncomplexed species and the intimately included 7-hydroxycarbonyl-2,4,9-trithiaadamantane in β-cyclodextrin in aqueous solutions. […] The simultaneous observation of changes in the chemical shift of the β-cyclodextrin at H-3 and H-5 also indicated the binding interaction was dominated by the inclusion of the 7-hydroxycarbonyl-2,4,9-trithiaadamantane guest inside the host β-cyclodextrin cavity.

association (stability) constant of the inclusion complex with β-cyclodextrin ([2]; 1:1 complex, in water (D2O), room temperature, 1H NMR titration) | logK of the stability constant of the β-cyclodextrin inclusion complex ([2]; in water) | solubility in water ([3]; water, without β-cyclodextrin) | change of solubility in water with β-cyclodextrin present ([3]; β-cyclodextrin present, 1:1 mixture (3.5×10^−3 M) formed a clear solution in D2O) | Compound | stability constant K of the β-cyclodextrin inclusion complex (comparison) [1]
– | – | – | – | O=C(O)C12CC3CC(CC(C3)C1)C2 [1-adamantane carboxylic acid] | 188 M⁻¹
1550 M⁻¹ | 3.19 | dissolves only slightly | increased visibly | O=C(O)C12CC3SC(C1)SC(C2)S3 [7-hydroxycarbonyl-2,4,9-trithiaadamantane] | –
